Assays:
MCL1 protein expression = assay: Immunoblot of MCL1 in eIF4E-dTAG clones and rescue models; format: cell-based, human; settings: for Quantification of MCL1 immunoblot signals using Image J, Average: Cont = 100; for Quantification of MCL1 (6hr) immunoblot signal using Image J, Average: 0.5 μM, control = 100
Procedure: One sample t and Wilcoxon tests (two-sided), using 100% as hypothetical control value, were performed and compared with the control in each cell line. b, c Real-time cell growth measurements monitored every 4 h over a 6-day period. Cell confluency (%) was calculated using Incucyte Zoom software and (mean ± SEM n = 3 biological replicates). Ordinary one-way ANOVA with Tukey multiple comparisons test compared treatment with the control in each cell line. […] Vinculin was used as loading control. H1299 (PAR) cell lines were treated with 1 μM dTAG^V-1 only as qualitative control. Vinculin was used as loading control. […] Significant p-values (< 0.05) are shown on the plots and the source data is located in the Source Data file.
After seeding overnight in 6 well plates (Corning, cat#353046), cells were treated with compounds for the indicated times and concentration, harvested and the cell pellet lysed on ice in cell lysis buffer (Cell Signaling, cat#9803), supplemented with 1x Halt^TM protease inhibitor cocktail (Fisher Scientific, cat#78429) and cOmplete^TM protease inhibitor cocktail (Sigma-Aldrich, cat#11836153001) for 1 hr. Protein was quantified using BCA protein kit (Fisher Scientific, cat#23225). Western blot was performed using NuPAGE^TM 4–12% Bis-Tris gels (Fisher Scientific, cat#NP0336BOX) and transferred using the Invitrogen iBLOT^TM gel transfer device system (Fisher Scientific, Cat#IB21001). […] All primary antibodies were diluted (1:1000) in 5% BSA (Sigma-Aldrich, cat#A7906) in 1x TBS and 0.1% Tween 20 (Sigma-Aldrich, cat#P1379), except for vinculin (1:2000) that was diluted in casein blocker (Sigma-Aldrich, cat#1610782). This was followed by incubation with the secondary HRP-conjugated antibodies (anti-mouse HRP, Bio-rad, Watford, UK, cat#1705047; anti-rabbit HRP, Sigma-Aldrich, cat#NA934) in casein for 1 h at RT. ECL HRP substrate (SuperSignalTM West Pico, Fisher Scientific, cat#34578) was then added to detect protein targets by chemiluminescence and images acquired using the ChemiDocTM system (Bio-Rad). Quantitative densitometry analysis of protein bands was performed using Image J v1.53 software.

[1] = test system: H1299 eIF4E-dTAG clones (C2-2, C3-1, N2-1, N3-2) and C3-1 rescue models; assay: IncuCyte real-time cell growth of eIF4E-dTAG clones and rescue models; format: cell-based, human; settings: for proliferation on co-treatment: 25 μM with dTAG^V-1
Procedure: Real time monitoring of cell growth was performed with the IncuCyte ZOOM live cell imaging system (Essen BioSciences, USA). Cells were seeded in 96 well plates (Corning, cat#353072) and treated on the next day. The resulting phase-contrast images were analysed using IncuCyte ZOOM 2018A software and results were expressed as percentage confluency of cells.

4E-BP1 binding to eIF4E = target: T1, 4E-BP1 binding to eIF4E (Homo sapiens, UniProt P06730); assay: Co-immunoprecipitation with eIF4E antibody, immunoblot for 4E-BP1, SW620 lysates; format: biochemical; settings: 1–100 µM, 30 min
T1 construct: endogenous in cells; host or cells: SW620 cell lysates
Procedure: Cells were harvested by trypsinisation and washed with PBS before lysis in MSD lysis buffer (150 mM NaCl, 20 mM Tris pH 7.5, 1 mM EDTA, 1 mM EGTA, 1% Triton X-100) containing protease inhibitors (Roche, complete mini tablet, cat# 11836153001) and phosphatase inhibitors (50 mM NaF and 100 mM Na3VO4). Lysate was placed on ice for 30 min and then cleared in a microfuge at 17,000 x g for 10 min at 4 °C. The protein concentration of the cleared lysate was determined by BCA assay (Pierce) and adjusted to 4 mg/ml with lysis buffer. […] 100 μl of lysate and 100 μl of beads were then incubated with shaking overnight at 4 °C. Samples were then washed 3x with 1 ml PBS, resuspended in 100 μl PBS and boiled for 10 min with 1x SDS-PAGE sample buffer containing 10 μl 1 mM DTT.
After seeding overnight in 6 well plates (Corning, cat#353046), cells were treated with compounds for the indicated times and concentration, harvested and the cell pellet lysed on ice in cell lysis buffer (Cell Signaling, cat#9803), supplemented with 1x Halt^TM protease inhibitor cocktail (Fisher Scientific, cat#78429) and cOmplete^TM protease inhibitor cocktail (Sigma-Aldrich, cat#11836153001) for 1 hr. Protein was quantified using BCA protein kit (Fisher Scientific, cat#23225). […] Quantitative densitometry analysis of protein bands was performed using Image J v1.53 software.

IRES-driven translation = assay: HeLa in vitro translation assay, IRES-driven reporter; format: biochemical, human; settings: for rLuc (IRES) luminescence normalized to DMSO control, Average: HeLa lysate IVT, n=3
Procedure: HeLa In vitro translation (IVT) assay kits were purchased from Thermo Fisher(cat#88882). Bicistronic reporter mRNA was prepared from using a CMV/T7-renilla luciferase-IRES(FDMV)-firefly luciferase reporter vector as template DNA (supplied by Oxford Genetics Ltd.) using Message Machine T7 Ultra transcription Kit (Thermo Fisher, cat# AM1345) to generate in vitro transcribed mRNA. DNA template was removed with Turbo DNase from the transcription kit and the mRNA purified using RNeasy columns (Qiagen, cat#74204). RNA concentration was adjusted to 1 µg/µl using a Nanodrop. In vitro translation assays were then set up using a HeLa IVT kit according to the manufacturer’s protocol. The reaction was analysed using Dual Glo luciferase reporter assays (Promega, cat#E2920). Compounds were diluted from 100x DMSO stocks 1:10 in PBS and 2.5 µl transferred to 96 well PCR plates (Starlab, cat#I1402-9700). 22.5 µl IVT reaction mix (1.5 mL HeLa lysate, 60 µl RNAsin (Promega, cat#N2115), 300 µl accessory proteins, 600 µl reaction buffer, 200 µl nuclease free water and 30 µl […] mRNA) was added and incubated for 30 min at 30 °C (PCR alphacycler 4, PCRmax, Stone, Staffordshire, UK). The samples were placed on ice for 10 min, then 10 µl was removed and transferred to a white 96 well assay plate (Corning, cat#3917). […]

eIF4E:eIF4G interaction = eIF4E:eIF4G interaction (Homo sapiens, UniProt P06730); assay: Electro-chemiluminescent binding assay, eIF4E:eIF4G, H1299 cell lysates; format: biochemical; design: endogenous in cells; host or cells: HeLa, SW620 or H1299 cells (lysates; intact H1299 cells in A13); settings: for endogenous eIF4E:eIF4G interaction, electro-chemiluminescent signal, Average: n=3, 0 μM control in r69
Procedure: This assay uses plates with carbon electrodes and electro-chemiluminescent labels (SULFO-TAGs) that are conjugated to detection antibodies. When an electric current is applied to the plate electrodes the SULFO-TAG labels will emit light that is measured to quantify analytes in the sample. […] The plates were washed with 3 ×150 µl/well MSD wash buffer (cat#R61AA-1; 0.2% Tween-20 in PBS), then blocked with 150 µl/well block buffer (MSD, cat# R93AA) for 1 h. […] The incubated plates were washed 4x in 150 µl in MSD wash buffer and were re-blocked by the addition of 25 μl of blocking buffer containing a 1:500 dilution of the secondary antibody and incubated for 1 hr at RT with rotational shaking. […] Plates were then washed again 4x in 150 µl in MSD wash buffer and 25 μl of a 1:50 dilution of Goat anti-rabbit Sulfo-Tag (MSD, Cat# R32AB-1) in MSD blocking buffer was added and the plates incubated for 1 h at RT with rotational shaking. After a final wash step, 150 μl Read Buffer T4X (MSD, Cat# R92-TC2) was added and the plate read using the MSD QuickPlex SQ 120 plate reader.

[2] = 25 μM, absence of dTAG^V-1, C3-1, W73F and L85R models

eIF4E:eIF4G interaction, sequence (P06730 2-217 limits assumed): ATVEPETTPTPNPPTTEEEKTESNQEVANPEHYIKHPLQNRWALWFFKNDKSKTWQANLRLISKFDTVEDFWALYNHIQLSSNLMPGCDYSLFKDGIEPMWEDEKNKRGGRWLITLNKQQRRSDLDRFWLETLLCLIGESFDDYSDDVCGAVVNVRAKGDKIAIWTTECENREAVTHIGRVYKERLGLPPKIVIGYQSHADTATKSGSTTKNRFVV
T1 sequence (P06730 2-217 limits assumed): as above

## CC[C@H](C(=O)N1CCCC[C@H]1C(=O)O[C@H](CCc1ccc(OC)c(OC)c1)c1ccccc1OCC(=O)NCCCCCCC(=O)N[C@H](C(=O)N1C[C@H](O)C[C@H]1C(=O)N[C@@H](C)c1ccc(-c2scnc2C)cc1)C(C)(C)C)c1cc(OC)c(OC)c(OC)c1 [dTAG^V-1]
MCL1 protein expression; C3-1 + WT eIF4E, 0.5 uM, n=3
  Quantification of MCL1 immunoblot signals using Image J, Average: 116.17
MCL1 protein expression; C3-1 + WT eIF4E, 1 uM, n=3
  Quantification of MCL1 immunoblot signals using Image J, Average: 110.20
MCL1 protein expression; C3-1, n=3
  Quantification of MCL1 (6hr) immunoblot signal using Image J, Average: 44
MCL1 protein expression; C3-1, 0.5 uM, n=3
  Quantification of MCL1 immunoblot signals using Image J, Average: 39.67
MCL1 protein expression; C3-1, 1 uM, n=3
  Quantification of MCL1 immunoblot signals using Image J, Average: 38.77
MCL1 protein expression; L85R, 0.5 uM, n=3
  Quantification of MCL1 immunoblot signals using Image J, Average: 69.30
MCL1 protein expression; L85R, 1 uM, n=3
  Quantification of MCL1 immunoblot signals using Image J, Average: 57.73
MCL1 protein expression; L134R, 0.5 uM, n=3
  Quantification of MCL1 immunoblot signals using Image J, Average: 63.30
MCL1 protein expression; L134R, 1 uM, n=3
  Quantification of MCL1 immunoblot signals using Image J, Average: 50.60
MCL1 protein expression; S209A rescue, n=3
  Quantification of MCL1 (6hr) immunoblot signal using Image J, Average: 117
MCL1 protein expression; S209A, 0.5 uM, n=3
  Quantification of MCL1 immunoblot signals using Image J, Average: 104.13
MCL1 protein expression; S209A, 1 uM, n=3
  Quantification of MCL1 immunoblot signals using Image J, Average: 110.17
MCL1 protein expression; W56A rescue, n=3
  Quantification of MCL1 (6hr) immunoblot signal using Image J, Average: 49
MCL1 protein expression; W56A, 0.5 uM, two experiments
  Quantification of MCL1 immunoblot signals using Image J, Average: 55.95
MCL1 protein expression; W56A, 1 uM, n=3
  Quantification of MCL1 immunoblot signals using Image J, Average: 64.70
MCL1 protein expression; W73F/L85R, 0.5 uM, n=3
  Quantification of MCL1 immunoblot signals using Image J, Average: 57.83
MCL1 protein expression; W73F/L85R, 1 uM, n=3
  Quantification of MCL1 immunoblot signals using Image J, Average: 56.77
MCL1 protein expression; W73F, 0.5 uM, n=3
  Quantification of MCL1 immunoblot signals using Image J, Average: 92.60
MCL1 protein expression; W73F, 1 uM, n=3
  Quantification of MCL1 immunoblot signals using Image J, Average: 99.57
MCL1 protein expression; WT rescue, n=3
  Quantification of MCL1 (6hr) immunoblot signal using Image J, Average: 99
MCL1 protein expression; eIF4E-dTAG clones
  MCL1 protein after treatment: decrease in MCL1 protein
[1]; treatment for 6 days, 0.5 or 1 µM
  growth of eIF4E-dTAG clones: inhibited growth of all 4 clones

## CC[C@@H](O[C@H](C)CO)c1ccc(-c2ccccc2F)cc1NCCO [Compound 5]
4E-BP1 binding to eIF4E
  effect on 4E-BP1 binding to eIF4E (co-immunoprecipitation): limited effect
IRES-driven translation; 1, 10, 100 µM
  effect on cap-independent IRES-driven translation: no significant effect
IRES-driven translation; 1 μM
  rLuc (IRES) luminescence normalized to DMSO control, Average: 100.6%
IRES-driven translation; 10 μM
  rLuc (IRES) luminescence normalized to DMSO control, Average: 89.2%
IRES-driven translation; 100 μM
  rLuc (IRES) luminescence normalized to DMSO control, Average: 98.4%
[1]; compound 5 with dTAG^V-1
  effects on cell growth, control combination: no significant effects
eIF4E:eIF4G interaction; 0.1 μM
  endogenous eIF4E:eIF4G interaction, electro-chemiluminescent signal, Average: 815674.7
eIF4E:eIF4G interaction; 1 μM
  endogenous eIF4E:eIF4G interaction, electro-chemiluminescent signal, Average: 773437.1
eIF4E:eIF4G interaction; 10 μM
  endogenous eIF4E:eIF4G interaction, electro-chemiluminescent signal, Average: 757778.5
eIF4E:eIF4G interaction; 100 µM
  inhibition of eIF4G:eIF4E binding: ~ 10%
eIF4E:eIF4G interaction; 100 μM
  endogenous eIF4E:eIF4G interaction, electro-chemiluminescent signal, Average: 644050.9

## CC[C@H](O[C@H](C)CO)c1ccc(-c2ccccc2F)cc1NCCO [Compound 4]
4E-BP1 binding to eIF4E
  effect on 4E-BP1 binding to eIF4E (co-immunoprecipitation): did not disrupt 4E-BP1 binding to eIF4E
IRES-driven translation; HeLa in vitro translation, 30 min, read-out: effect on IRES-driven translation
  EC50: > 100 µM
IRES-driven translation; 1 μM
  rLuc (IRES) luminescence normalized to DMSO control, Average: 97.0%
IRES-driven translation; 10 μM
  rLuc (IRES) luminescence normalized to DMSO control, Average: 85.6%
IRES-driven translation; 100 μM
  rLuc (IRES) luminescence normalized to DMSO control, Average: 88.7%
MCL1 protein expression; 25 μM with dTAG^V-1, C3-1 or L85R rescue line
  MCL1 expression on co-treatment: no additional loss of proliferation or MCL1 expression
MCL1 protein expression; [2]
  effect on MCL1 biomarker: no effect on the MCL1 biomarker or proliferation
[1]; C3-1 or L85R rescue line
  proliferation on co-treatment: no additional loss of proliferation or MCL1 expression
[1]; W73F mutant model
  proliferation on co-treatment: significant combinatorial effect on proliferation
[1]; [2]
  effect on proliferation: no effect on the MCL1 biomarker or proliferation
[1]; compound 4 with neg-dTAG^V-1
  effects on cell growth, control combination: no significant effects
[1]; with dTAG^V-1, W73F mutant model
  sensitisation on co-treatment: ≈ 50%
eIF4E:eIF4G interaction; 0.1 μM
  endogenous eIF4E:eIF4G interaction, electro-chemiluminescent signal, Average: 820654.4
eIF4E:eIF4G interaction; 1 μM
  endogenous eIF4E:eIF4G interaction, electro-chemiluminescent signal, Average: 641951.8
eIF4E:eIF4G interaction; 10 μM
  endogenous eIF4E:eIF4G interaction, electro-chemiluminescent signal, Average: 429514.6
eIF4E:eIF4G interaction; 100 μM
  endogenous eIF4E:eIF4G interaction, electro-chemiluminescent signal, Average: 347571.1
eIF4E:eIF4G interaction; read-out: EC50, eIF4G:eIF4E binding
  EC50: ~1.5 µM
